# Assay results as given in ChEMBL document CHEMBL1909046, “DrugMatrix in vitro pharmacology data”.
# How the values were obtained:
# [1] = DRUGMATRIX: Calcium Channel Type L, Dihydropyridine radioligand binding (ligand: [3H] Nitrendipine); format: cell membranes, Rattus norvegicus, Wistar, Cerebral cortex, Membrane; conditions: Not Active = under 50% inhibition at 10 µM
# [2] = target: T1, Alpha-1D adrenergic receptor (Homo sapiens, UniProt P25100); format: cell membranes, HEK293, Membrane; conditions: hek293; note: in other assays of this panel Not Active means under 50% inhibition at 10 µM
# T1 sequence (P25100 whole entry): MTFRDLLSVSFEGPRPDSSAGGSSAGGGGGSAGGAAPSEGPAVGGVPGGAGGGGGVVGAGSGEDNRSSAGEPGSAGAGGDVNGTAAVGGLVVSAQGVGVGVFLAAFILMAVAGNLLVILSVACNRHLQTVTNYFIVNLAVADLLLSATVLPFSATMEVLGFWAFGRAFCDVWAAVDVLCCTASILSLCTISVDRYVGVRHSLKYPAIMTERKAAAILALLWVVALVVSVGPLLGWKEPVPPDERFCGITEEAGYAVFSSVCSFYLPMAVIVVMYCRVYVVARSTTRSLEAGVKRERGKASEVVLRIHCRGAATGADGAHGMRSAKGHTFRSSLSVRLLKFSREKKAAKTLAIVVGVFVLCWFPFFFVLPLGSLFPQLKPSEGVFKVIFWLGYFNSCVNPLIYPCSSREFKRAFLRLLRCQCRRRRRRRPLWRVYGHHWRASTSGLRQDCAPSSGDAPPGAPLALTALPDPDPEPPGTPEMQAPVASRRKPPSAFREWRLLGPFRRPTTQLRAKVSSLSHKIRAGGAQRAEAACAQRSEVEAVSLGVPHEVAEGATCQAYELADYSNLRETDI
# [3] = DRUGMATRIX: Calcium Channel Type L, Phenylalkylamine radioligand binding (ligand: [3H] (-)-Desmethoxyverapamil (D-888)); format: cell membranes, Rattus norvegicus, Wistar, Brain, Membrane; conditions: Not Active = under 50% inhibition at 10 µM
# [4] = target: T2, B2 bradykinin receptor (Homo sapiens, UniProt P30411); format: cell membranes, Membrane; conditions: chem-1; note: in other assays of this panel Not Active means under 50% inhibition at 10 µM
# T2 sequence (P30411 whole entry): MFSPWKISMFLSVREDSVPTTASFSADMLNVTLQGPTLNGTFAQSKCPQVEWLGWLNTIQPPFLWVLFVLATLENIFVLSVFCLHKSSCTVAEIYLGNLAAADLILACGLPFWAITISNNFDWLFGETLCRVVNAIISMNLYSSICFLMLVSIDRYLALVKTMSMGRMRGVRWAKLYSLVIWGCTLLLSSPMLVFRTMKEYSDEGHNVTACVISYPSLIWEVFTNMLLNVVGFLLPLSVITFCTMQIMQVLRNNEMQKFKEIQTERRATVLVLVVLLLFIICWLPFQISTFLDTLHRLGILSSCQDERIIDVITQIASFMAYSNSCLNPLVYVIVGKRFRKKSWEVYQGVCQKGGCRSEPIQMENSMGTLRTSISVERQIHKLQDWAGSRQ
# [5] = target: T3, Cysteinyl leukotriene receptor 1 (Homo sapiens, UniProt Q9Y271); format: cell membranes, CHO-K1, Membrane; conditions: cho-k1; note: in other assays of this panel Not Active means under 50% inhibition at 10 µM
# T3 sequence (Q9Y271 whole entry): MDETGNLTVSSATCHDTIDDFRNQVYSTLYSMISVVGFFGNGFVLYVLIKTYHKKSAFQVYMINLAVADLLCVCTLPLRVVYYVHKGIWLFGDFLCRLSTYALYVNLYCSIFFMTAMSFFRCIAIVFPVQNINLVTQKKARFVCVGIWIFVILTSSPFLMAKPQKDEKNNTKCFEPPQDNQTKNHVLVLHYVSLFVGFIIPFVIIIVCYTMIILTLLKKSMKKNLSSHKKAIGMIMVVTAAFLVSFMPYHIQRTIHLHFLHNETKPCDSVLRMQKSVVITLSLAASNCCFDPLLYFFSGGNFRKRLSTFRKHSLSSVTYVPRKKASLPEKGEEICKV
# [6] = target: T4, Amine oxidase [flavin-containing] A (Homo sapiens, UniProt P21397); test: DRUGMATRIX: Monoamine Oxidase MAO-A enzyme inhibition (substrate: Kynuramine); parameters: species or system BTI-TN-5B1-4; conditions: bti-tn-5b1-4; Not Active = under 50% inhibition at 10 µM
# T4 sequence (P21397 whole entry): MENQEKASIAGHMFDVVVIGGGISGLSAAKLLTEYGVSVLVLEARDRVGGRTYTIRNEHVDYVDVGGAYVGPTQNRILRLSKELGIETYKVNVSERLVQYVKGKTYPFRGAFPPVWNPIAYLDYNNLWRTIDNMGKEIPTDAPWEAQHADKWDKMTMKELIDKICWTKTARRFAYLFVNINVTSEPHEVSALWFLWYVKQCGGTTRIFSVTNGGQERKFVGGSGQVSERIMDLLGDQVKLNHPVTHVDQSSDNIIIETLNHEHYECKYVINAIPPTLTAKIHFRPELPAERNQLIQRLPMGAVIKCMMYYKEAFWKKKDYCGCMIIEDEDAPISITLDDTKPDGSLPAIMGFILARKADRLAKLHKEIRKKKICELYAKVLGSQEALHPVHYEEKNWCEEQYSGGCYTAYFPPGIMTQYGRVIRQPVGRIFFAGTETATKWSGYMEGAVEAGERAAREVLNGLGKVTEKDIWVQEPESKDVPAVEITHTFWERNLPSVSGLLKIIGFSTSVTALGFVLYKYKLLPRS
# [7] = target: Substance-P receptor (Homo sapiens, UniProt P25103); format: cell membranes, CHO, Membrane; conditions: cho; note: in other assays of this panel Not Active means under 50% inhibition at 10 µM
# Sequence of Substance-P receptor (P25103 whole entry): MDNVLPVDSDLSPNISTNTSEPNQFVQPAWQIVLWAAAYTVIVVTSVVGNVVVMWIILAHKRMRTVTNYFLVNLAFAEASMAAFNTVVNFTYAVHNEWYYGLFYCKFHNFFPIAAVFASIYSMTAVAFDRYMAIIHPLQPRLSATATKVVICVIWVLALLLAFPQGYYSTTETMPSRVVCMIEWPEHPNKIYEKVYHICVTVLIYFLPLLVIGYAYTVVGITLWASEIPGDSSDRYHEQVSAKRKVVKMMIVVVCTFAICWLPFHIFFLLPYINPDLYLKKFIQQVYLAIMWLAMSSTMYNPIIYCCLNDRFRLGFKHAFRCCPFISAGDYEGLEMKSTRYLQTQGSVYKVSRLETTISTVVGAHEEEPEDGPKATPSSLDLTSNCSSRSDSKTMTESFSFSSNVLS
Structure (SMILES),IC50 [1],Ki [1],IC50 [2],IC50 [3],Ki [3],IC50 [4],IC50 [5],IC50 [6],IC50 [7],IC50 ([3]; read-out: IC50) [nM],Ki ([3]; read-out: Ki) [nM]
CC(C)C(=O)Nc1ccc([N+](=O)[O-])c(C(F)(F)F)c1 [FLUTAMIDE],Not Active,Not Active,Not Active,Not Active,Not Active,Not Active,Not Active,Not Active,Not Active,,
N=C(N)NCCN1CCCCCCC1 [GUANETHIDINE],Not Active,Not Active,Not Active,Not Active,Not Active,Not Active,Not Active,Not Active,Not Active,,
CC1(C)O[C@@H]2C[C@H]3[C@@H]4CCC5=CC(=O)CC[C@]5(C)[C@@]4(F)[C@@H](O)C[C@]3(C)[C@]2(C(=O)CCl)O1 [HALCINONIDE],Not Active,Not Active,Not Active,Not Active,Not Active,Not Active,Not Active,Not Active,Not Active,,
O=c1[nH]c(=O)n([C@H]2C[C@H](O)[C@@H](CO)O2)cc1I [IDOXURIDINE],Not Active,Not Active,Not Active,Not Active,Not Active,Not Active,Not Active,Not Active,Not Active,,
CC1Cc2ccccc2N1NC(=O)c1ccc(Cl)c(S(N)(=O)=O)c1 (stereo not drawn) [INDAPAMIDE],Not Active,Not Active,Not Active,Not Active,Not Active,Not Active,Not Active,Not Active,Not Active,,
Nc1nc(N)nc(-c2cc(Cl)ccc2Cl)n1.O=C(O)/C=C\C(=O)O [IRSOGLADINE MALEATE],Not Active,Not Active,Not Active,Not Active,Not Active,Not Active,Not Active,Not Active,Not Active,,
CCC(C)n1ncn(-c2ccc(N3CCN(c4ccc(OCC5COC(Cn6cncn6)(c6ccc(Cl)cc6Cl)O5)cc4)CC3)cc2)c1=O (stereo not drawn) [ITRACONAZOLE],Not Active,Not Active,Not Active,Not Active,Not Active,Not Active,Not Active,Not Active,Not Active,,
CCCCN1CCCC[C@H]1C(=O)Nc1c(C)cccc1C [LEVOBUPIVACAINE],Not Active,Not Active,Not Active,Not Active,Not Active,Not Active,Not Active,Not Active,Not Active,,
CCCCc1nc(Cl)c(CO)n1Cc1ccc(-c2ccccc2-c2nnn[nH]2)cc1 [LOSARTAN],Not Active,Not Active,Not Active,Not Active,Not Active,Not Active,Not Active,Not Active,Not Active,,
Sc1ncnc2nc[nH]c12 [MERCAPTOPURINE ANHYDROUS],Not Active,Not Active,Not Active,Not Active,Not Active,Not Active,Not Active,Not Active,Not Active,,
C[C@](N)(Cc1ccc(O)c(O)c1)C(=O)O [METHYLDOPA],Not Active,Not Active,Not Active,Not Active,Not Active,Not Active,Not Active,Not Active,Not Active,,
C[C@]12CCC(=O)C=C1CC[C@@H]1[C@@H]2CC[C@@]2(C)[C@H]1CC[C@]2(C)O [METHYLTESTOSTERONE],Not Active,Not Active,Not Active,Not Active,Not Active,Not Active,Not Active,Not Active,Not Active,,
Cc1ccccc1N1C(=O)c2cc(S(N)(=O)=O)c(Cl)cc2NC1C (stereo not drawn) [METOLAZONE],Not Active,Not Active,Not Active,Not Active,Not Active,Not Active,Not Active,Not Active,Not Active,,
COCCc1ccc(OCC(O)CNC(C)C)cc1 (stereo not drawn) [METOPROLOL],Not Active,Not Active,Not Active,Not Active,Not Active,Not Active,Not Active,Not Active,Not Active,,
CCn1cc(C(=O)O)c(=O)c2cc(F)c(N3CCNCC3)cc21 [NORFLOXACIN],Not Active,Not Active,Not Active,Not Active,Not Active,Not Active,Not Active,Not Active,Not Active,,
NC1=NC(=O)C(c2ccccc2)O1 (stereo not drawn) [PEMOLINE],Not Active,Not Active,Not Active,Not Active,Not Active,Not Active,Not Active,Not Active,Not Active,,
Nc1nc2c(ncn2CCC(CO)CO)c(=O)[nH]1 [PENCICLOVIR],Not Active,Not Active,Not Active,Not Active,Not Active,Not Active,Not Active,Not Active,Not Active,,
C=C(C)C1(O)OC(=O)C=C1OC (stereo not drawn) [PENICILLIC ACID],Not Active,Not Active,Not Active,Not Active,Not Active,Not Active,Not Active,Not Active,Not Active,,
CC1(C)S[C@@H]2[C@H](NC(=O)Cc3ccccc3)C(=O)N2[C@H]1C(=O)O [PENICILLIN G],Not Active,Not Active,Not Active,Not Active,Not Active,Not Active,Not Active,Not Active,Not Active,,
C1CCC(C(CC2CCCCN2)C2CCCCC2)CC1 (stereo not drawn) [PERHEXILINE],Not Active,Not Active,Not Active,,,Not Active,Not Active,Not Active,Not Active,1350,1310
CCOc1ccc(NC(C)=O)cc1 [PHENACETIN],Not Active,Not Active,Not Active,Not Active,Not Active,Not Active,Not Active,Not Active,Not Active,,
CNNCc1ccc(C(=O)NC(C)C)cc1 [PROCARBAZINE],Not Active,Not Active,Not Active,Not Active,Not Active,Not Active,Not Active,Not Active,Not Active,,
